± gives the expanded uncertainty stated by the source.
Settings: for Normal melting temperature: Crystal

SMILES	Normal melting temperature (visual observation)	Glass transition temperature (DTA)	Normal melting temperature (DTA)
CCCCC[n+]1cccc(C)c1.[Cl-] [1-pentyl-3-methylpyridinium chloride]	92.00 ± 5 °C	21.50 ± 5 °C	–
CC[n+]1cccc(C)c1.[Br-] [1-ethyl-3-methylpyridinium bromide]	163.00 ± 5 °C	–	146.00 ± 5 °C
CCCC[n+]1cccc(C)c1.[Cl-] [1-butyl-3-methylpyridinium chloride]	97.00 ± 5 °C	35.00 ± 5 °C	93.00 ± 5 °C
CCCCCCC[n+]1cccc(C)c1.[Cl-] [1-heptyl-3-methylpyridinium chloride]	72.00 ± 5 °C	16.50 ± 5 °C	–
CCC[n+]1cccc(C)c1.[Cl-] [1-propyl-3-methylpyridinium chloride]	92.00 ± 5 °C	18.50 ± 5 °C	–
CCCCCCCCC[n+]1cccc(C)c1.[Cl-] [1-nonyl-3-methylpyridinium chloride]	64.00 ± 5 °C	–	–
CCCCCCCCCC[n+]1cccc(C)c1.[Cl-] [1-decyl-3-methylpyridinium chloride]	64.00 ± 5 °C	–	55.00 ± 5 °C
CC[n+]1cccc(C)c1.[Cl-] [1-ethyl-3-methylpyridinium chloride]	130.00 ± 5 °C	29.00 ± 5 °C	–
CCCCCC[n+]1cccc(C)c1.[Cl-] [1-hexyl-3-methylpyridinium chloride]	77.00 ± 5 °C	–	62.00 ± 5 °C
C=CC[n+]1cccc(C)c1.[Cl-] [1-allyl-3-methylpyridinium chloride]	108.00 ± 5 °C	27.50 ± 5 °C	–
CCCCCCCC[n+]1cccc(C)c1.[Cl-] [1-octyl-3-methylpyridinium chloride]	74.00 ± 5 °C	–	69.00 ± 5 °C
